How the values were obtained:
[1] = test system: HCV replicon RNA (GenBank Accession No. AJ242654); assay: HCV Replicon Assay (replicon RNA reduction and/or Fluc reporter signal); type: cell-based, Hepatitis C virus; details: Hepatitis C virus, 72 h, replicon-containing cells cultured with test compound for up to 3 days
How it was run: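 IC50 values mostly reflect the drop in replicon RNA, though Fluc reporter signal may also be used. Compound incubated with cells carrying the bicistronic replicon for as long as 3 days; interferon served as positive control.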

For `COc1ccc2c(n1)c(C#N)c(-c1ccc(NS(=O)(=O)C(C)C)cc1)n2CC1CC1` [Cpd 3, N-{4-[3-cyano-1-(cyclopropylmethyl)-5-methoxy-1H-pyrrolo[3,2-b]pyridin-2-yl]phenyl}propane-2-sulfonamide], the melting point was 230 to 232 °C and the IC50 [1] was < 500 nM.

Work on `CC(C)NS(=O)(=O)c1ccc(-c2c(C#N)c3cc(F)cnc3n2CC2CC2)cc1` [Cpd 4, 4-[3-cyano-1-(cyclopropylmethyl)-5-fluoro-1H-pyrrolo[2,3-b]pyridin-2-yl]-N-(propan-2-yl)benzenesulfonamide] yielded a melting point of 162 to 165 °C and an IC50 [1] of 2000 to 5000 nM.

In the case of `Cc1ccc2c(C#N)c(-c3ccc(S(=O)(=O)NC(C)C)cc3)n(CC3CC3)c2n1` [Cpd 5, 4-[3-cyano-1-(cyclopropylmethyl)-6-methyl-1H-pyrrolo[2,3-b]pyridin-2-yl]-N-(propan-2-yl)benzenesulfonamide], the melting point is reported as 175 to 177 °C and the IC50 [1] is reported as < 500 nM.

For `CC(C)NS(=O)(=O)c1ccc(-c2c(C#N)c3cc(Cl)cnc3n2C2CCC2)cc1` [Cpd 6, 4-(5-chloro-3-cyano-1-cyclobutyl-1H-pyrrolo[2,3-b]pyridin-2-yl)-N-(propan-2-yl)benzenesulfonamide], the melting point was 172 to 175 °C and the IC50 [1] was < 500 nM.

Molecule `CC(C)NS(=O)(=O)c1ccc(-c2c(C#N)c3cccnc3n2C2CCC2)cc1` [Cpd 7, 4-(3-cyano-1-cyclobutyl-1H-pyrrolo[2,3-b]pyridin-2-yl)-N-(propan-2-yl)benzenesulfonamide] has a melting point of 198 to 200 °C and an IC50 [1] of 500 to 2000 nM.

Work on `N#Cc1c(-c2ccc(S(=O)(=O)NC(CF)CF)cc2)n(C2CCC2)c2ncc(Cl)cc12` [Cpd 8, 4-(5-chloro-3-cyano-1-cyclobutyl-1H-pyrrolo[2,3-b]pyridin-2-yl)-N-(1,3-difluoropropan-2-yl)benzenesulfonamide] yielded a melting point of 234 to 238 °C and an IC50 [1] of 500 to 2000 nM.

For `COc1cnc2c(c1)c(C#N)c(-c1ccc(S(=O)(=O)NC(CF)CF)cn1)n2C1CCC1` [Cpd 9, 6-(3-cyano-1-cyclobutyl-5-methoxy-1H-pyrrolo[2,3-b]pyridin-2-yl)-N-(1,3-difluoropropan-2-yl)pyridine-3-sulfonamide], the melting point was 161 to 163 °C and the IC50 [1] was < 500 nM.

In the case of `N#Cc1c(-c2ccc(S(=O)(=O)NC(CF)CF)cn2)n(C2CCCC2)c2ncc(Cl)cc12` [Cpd 10, 6-(5-chloro-3-cyano-1-cyclopentyl-1H-pyrrolo[2,3-b]pyridin-2-yl)-N-(1,3-difluoropropan-2-yl)pyridine-3-sulfonamide], the melting point is reported as 208 to 209 °C and the IC50 [1] is reported as < 500 nM.

For `COc1cnc2c(c1)c(C#N)c(-c1ncc(S(=O)(=O)NC(CF)CF)cn1)n2C1CCC1` [Cpd 11, 2-(3-cyano-1-cyclobutyl-5-methoxy-1H-pyrrolo[2,3-b]pyridin-2-yl)-N-(1,3-difluoropropan-2-yl)pyrimidine-5-sulfonamide], the melting point was 194 to 196 °C and the IC50 [1] was 500 to 2000 nM.

With `N#Cc1c(-c2ccc(S(=O)(=O)NC(CF)CF)cn2)n(C2CCC2)c2ncc(F)cc12` [Cpd 12, 6-(3-cyano-1-cyclobutyl-5-fluoro-1H-pyrrolo[2,3-b]pyridin-2-yl)-N-(1,3-difluoropropan-2-yl)pyridine-3-sulfonamide] the melting point was 155 to 157 °C and the IC50 [1] was 500 to 2000 nM.

With `N#Cc1c(-c2ncc(S(=O)(=O)NC(CF)CF)cn2)n(C2CCC2)c2ncc(Cl)cc12` [Cpd 13, 2-(5-chloro-3-cyano-1-cyclobutyl-1H-pyrrolo[2,3-b]pyridin-2-yl)-N-(1,3-difluoropropan-2-yl)pyrimidine-5-sulfonamide] the melting point was 199 to 200 °C and the IC50 [1] was < 500 nM.

With `N#Cc1c(-c2ccc(S(=O)(=O)NC(CF)CF)cn2)n(C2CCC2)c2ncc(Cl)cc12` [Cpd 14, 6-(5-chloro-3-cyano-1-cyclobutyl-1H-pyrrolo[2,3-b]pyridin-2-yl)-N-(1,3-difluoropropan-2-yl)pyridine-3-sulfonamide] the melting point was 176 to 178 °C and the IC50 [1] was < 500 nM.

Molecule `COc1ccc2c(n1)c(C#N)c(-c1ccc(S(=O)(=O)NC(CF)CF)cn1)n2C1CCC1` [Cpd 15, 6-(3-cyano-1-cyclobutyl-5-methoxy-1H-pyrrolo[3,2-b]pyridin-2-yl)-N-(1,3-difluoropropan-2-yl)pyridine-3-sulfonamide] has a melting point of 199 to 201 °C and an IC50 [1] of 500 to 2000 nM.

For `N#Cc1c(-c2ncc(S(=O)(=O)NC(CF)CF)cn2)n(C2CCC2)c2ncc(F)cc12` [Cpd 16, 2-(3-cyano-1-cyclobutyl-5-fluoro-1H-pyrrolo[2,3-b]pyridin-2-yl)-N-(1,3-difluoropropan-2-yl)pyrimidine-5-sulfonamide], the melting point was 204 to 206 °C and the IC50 [1] was 500 to 2000 nM.

`N#Cc1c(-c2ncc(S(=O)(=O)NC(CF)CF)cn2)n(C2CCCC2)c2ncc(Cl)cc12` [Cpd 17, 2-(5-chloro-3-cyano-1-cyclopentyl-1H-pyrrolo[2,3-b]pyridin-2-yl)-N-(1,3-difluoropropan-2-yl)pyrimidine-5-sulfonamide] showed a melting point of 247 to 248 °C and an IC50 [1] of 500 to 2000 nM.

`C[C@H](NS(=O)(=O)c1ccc(-c2c(C#N)c3cccnc3n2C2CCC2)nc1)C(F)(F)F` [Cpd 18, 6-(3-cyano-1-cyclobutyl-1H-pyrrolo[2,3-b]pyridin-2-yl)-N-[(2S)-1,1,1-trifluoropropan-2-yl]pyridine-3-sulfonamide] showed a melting point of 183 to 185 °C and an IC50 [1] of 500 to 2000 nM.

In the case of `COc1ccc2c(n1)c(C#N)c(-c1ncc(S(=O)(=O)NC(CF)CF)cn1)n2C1CCC1` [Cpd 19, 2-(3-cyano-1-cyclobutyl-5-methoxy-1H-pyrrolo[3,2-b]pyridin-2-yl)-N-(1,3-difluoropropan-2-yl)pyrimidine-5-sulfonamide], the melting point is reported as 241 to 243 °C and the IC50 [1] is reported as 2000 to 5000 nM.

In the case of `C[C@H](NS(=O)(=O)c1cnc(-c2c(C#N)c3cc(F)cnc3n2C2CCC2)nc1)C(F)(F)F` [Cpd 21, 2-(3-cyano-1-cyclobutyl-5-fluoro-1H-pyrrolo[2,3-b]pyridin-2-yl)-N-[(2S)-1,1,1-trifluoropropan-2-yl]pyrimidine-5-sulfonamide], the melting point is reported as 186 to 187 °C and the IC50 [1] is reported as < 500 nM.

For `COc1cnc2c(c1)c(C#N)c(-c1ncc(S(=O)(=O)N[C@@H](C)C(F)(F)F)cn1)n2C1CCC1` [Cpd 23, 2-(3-cyano-1-cyclobutyl-5-methoxy-1H-pyrrolo[2,3-b]pyridin-2-yl)-N-[(2S)-1,1,1-trifluoropropan-2-yl]pyrimidine-5-sulfonamide], the melting point was 193 to 196 °C and the IC50 [1] was 500 to 2000 nM.

For `C[C@H](NS(=O)(=O)c1ccc(-c2c(C#N)c3cc(Cl)cnc3n2C2CCCC2)nc1)C(F)(F)F` [Cpd 24, 6-(5-chloro-3-cyano-1-cyclopentyl-1H-pyrrolo[2,3-b]pyridin-2-yl)-N-[(2S)-1,1,1-trifluoropropan-2-yl]pyridine-3-sulfonamide], the melting point was 197 to 199 °C and the IC50 [1] was < 500 nM.

Work on `C[C@H](NS(=O)(=O)c1cnc(-c2c(C#N)c3cc(Cl)cnc3n2C2CCCC2)nc1)C(F)(F)F` [Cpd 25, 2-(5-chloro-3-cyano-1-cyclopentyl-1H-pyrrolo[2,3-b]pyridin-2-yl)-N-[(2S)-1,1,1-trifluoropropan-2-yl]pyrimidine-5-sulfonamide] yielded a melting point of 206 to 208 °C and an IC50 [1] of 500 to 2000 nM.

`Cc1cc2c(cn1)c(C#N)c(-c1ccc(S(=O)(=O)NC(CF)CF)cn1)n2C1CCC1` [Cpd 26, 6-(3-cyano-1-cyclobutyl-6-methyl-1H-pyrrolo[3,2-c]pyridin-2-yl)-N-(1,3-difluoropropan-2-yl)pyridine-3-sulfonamide] showed a melting point of 216 to 218 °C and an IC50 [1] of 500 to 2000 nM.

For `Cc1cc2c(cn1)c(C#N)c(-c1ncc(S(=O)(=O)NC(CF)CF)cn1)n2C1CCC1` [Cpd 27, 2-(3-cyano-1-cyclobutyl-6-methyl-1H-pyrrolo[3,2-c]pyridin-2-yl)-N-(1,3-difluoropropan-2-yl)pyrimidine-5-sulfonamide], the melting point was 234 to 236 °C and the IC50 [1] was < 500 nM.

With `Cc1cc2c(cn1)c(C#N)c(-c1ccc(S(=O)(=O)N[C@@H](C)C(F)(F)F)cn1)n2C1CCC1` [Cpd 28, 6-(3-cyano-1-cyclobutyl-6-methyl-1H-pyrrolo[3,2-c]pyridin-2-yl)-N-[(2S)-1,1,1-trifluoropropan-2-yl]pyridine-3-sulfonamide] the melting point was 189 to 191 °C and the IC50 [1] was 2000 to 5000 nM.

For `Cc1cc2c(cn1)c(C#N)c(-c1ccc(S(=O)(=O)N[C@H](C)C(F)(F)F)cn1)n2C1CCC1` [Cpd 29, 6-(3-cyano-1-cyclobutyl-6-methyl-1H-pyrrolo[3,2-c]pyridin-2-yl)-N-[(2R)-1,1,1-trifluoropropan-2-yl]pyridine-3-sulfonamide], the melting point was 176 to 178 °C and the IC50 [1] was < 500 nM.

For `Cc1cc2c(cn1)c(C#N)c(-c1ccc(S(=O)(=O)N[C@@H](C)C(F)(F)F)cc1)n2C1CCC1` [Cpd 30, 4-(3-cyano-1-cyclobutyl-6-methyl-1H-pyrrolo[3,2-c]pyridin-2-yl)-N-[(2S)-1,1,1-trifluoropropan-2-yl]benzenesulfonamide], the melting point was 248 to 249 °C and the IC50 [1] was < 500 nM.

With `Cc1cc2c(cn1)c(C#N)c(-c1ccc(S(=O)(=O)N[C@H](C)C(F)(F)F)cc1)n2C1CCC1` [Cpd 31, 4-(3-cyano-1-cyclobutyl-6-methyl-1H-pyrrolo[3,2-c]pyridin-2-yl)-N-[(2R)-1,1,1-trifluoropropan-2-yl]benzenesulfonamide] the melting point was 247 to 249 °C and the IC50 [1] was < 500 nM.

With `Cc1cc2c(cn1)c(C#N)c(-c1ncc(S(=O)(=O)NC(C)C)cn1)n2C1CCC1` [Cpd 32, 2-(3-cyano-1-cyclobutyl-6-methyl-1H-pyrrolo[3,2-c]pyridin-2-yl)-N-(propan-2-yl)pyrimidine-5-sulfonamide] the melting point was 242 to 243 °C and the IC50 [1] was < 500 nM.

For `Cc1cc2c(cn1)c(C#N)c(-c1ccc(S(=O)(=O)NC(CF)CF)cc1)n2C1CCC1` [Cpd 33, 4-(3-cyano-1-cyclobutyl-6-methyl-1H-pyrrolo[3,2-c]pyridin-2-yl)-N-(1,3-difluoropropan-2-yl)benzenesulfonamide], the melting point was 234 to 236 °C and the IC50 [1] was < 500 nM.

From patent US9593108B2, “Compounds and methods for antiviral treatment” (PTC Therapeutics, Inc., priority 2009, dated 2017)
